In patent US11622988B2, “Method for reducing fat accumulation by using tetramethylisoscutellarein” (TCI CO., LTD., priority 2018, dated 2023):

Test system: mouse bone marrow stromal cell OP9
Experiment: Oil-red O staining of fat accumulation in differentiated OP9 cells
Type: cell-based
Conditions: 10 μg/mL, incubated 7-10 days, O.D. 510 nm
Protocol: First, 8×10^4 mouse bone marrow stromal cell OP9 (ATCC® CRL-2749™) was seeded with 500 μL of pre-adipocyte expansion medium (supplemented with 90% minimum essential medium alpha medium (Gibco), […] (Gibco) and 1% penicillin/streptomycin (Gibco)) in a 24-well plate, and incubated at 37° C. for 7 days. Fresh differentiation medium (supplemented with 90% minimum essential medium alpha medium, 20% fetal bovine serum, and 1% penicillin/streptomycin) was replaced every three days. After 7 days, lipid droplet formation was observed using microscopy (ZEISS) to make sure the cells are fully differentiated.
Thereafter, five groups of OP9 cells (i.e. an experimental group, three comparative groups (comparative group 1 to comparative group 3) and a control group) were prepared. […]
The oil droplet was dissolved using 100% isopropanol, and the plate was put on shaker and incubation for 10 min. A volume of 100 μL was taken to 96-well plate for measuring the O.D ratio (510 nm) with the ELISA reader (BioTek).
The statistical significance of the differences between each group was determined by Student's t-test in Microsoft Excel. […]

With COc1ccc(-c2cc(=O)c3c(OC)cc(OC)c(OC)c3o2)cc1 [tetramethylisoscutellarein] the “oil red relative percentage, lower than the control group” value was 28%.
